From ChEMBL document CHEMBL1201862, “PubChem BioAssay data set” (2004)
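Assay format: 96-well plates, 48-hour exposure. Abbreviation: GI50, concentration required for 50% inhibition of growth.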 Active and inactive are the calls of the source. Rule as the data show it: active = GI50 up to about 1.1 µM and inactive = higher.

Columns and labels:
Test in all cases: NCI tumour cell line growth inhibition, 48 h
[1] = system: UACC-257
[2] = system: DLD-1
[3] = system: UO-31
[4] = system: Malme-3M
[5] = system: XF498
[6] = system: SNB-75
[7] = system: LOX IMVI
[8] = system: TK-10
[9] = system: KM12
[10] = system: SW-620
[11] = system: SF-539
[12] = system: IGROV-1
[13] = system: HL-60
[14] = system: ACHN
[15] = system: MOLT-4
[16] = system: A549
[17] = system: UACC-62
[18] = system: MDA-MB-231
[19] = system: M14
[20] = system: NCI/ADR-RES

Measured: GI50

CN(C)c1nc(N(C)C)nc(N(C)CN(C)c2ccc(Cl)cc2)n1
inactive: [1] > 100 µM | [2] > 100 µM | [3] > 100 µM | [4] > 100 µM | [5] > 100 µM | [6] > 100 µM | [7] > 100 µM | [8] > 100 µM | [9] > 100 µM | [10] > 100 µM | [11] > 100 µM | [12] > 100 µM | [13] 1.72 µM | [14] > 100 µM | [15] > 100 µM | [16] > 100 µM | [17] > 100 µM

Oc1ccc(-c2nc3ccc(Br)cc3s2)cc1
inactive: [18] 16.3 µM | [19] 18.9 µM | [1] 21.4 µM | [3] 14.5 µM | [4] 27 µM | [7] 15.5 µM | [8] 17.3 µM | [9] 14.7 µM | [10] 32.2 µM | [11] 14.8 µM | [20] 18.1 µM | [12] 12.9 µM | [13] 17 µM | [14] 22.2 µM | [15] 33.3 µM | [16] 21.7 µM | [17] 13 µM
